Reference: patent US7737182B2, “Pharmaceuticals for xerosis” (Taisho Pharmaceutical Co., Ltd., priority 2001, dated 2010)

Experiments:
BALB/c male mice [1] = experiment: Mouse skin's barrier function, treatment test, TEWL (Test Example 5); type: in vivo; settings: barrier destroyed with acetone/diethyl ether; 0.01% in ethanol, 100 μL, once a day for 2 days
Method: Six-week-old BALB/c male mice in groups of eight were shaven in a rostral dorsolateral area of 4 cm^2 (2 cm×2 cm) with electric clippers and the shaven area was covered for 60 seconds with an absorbent cotton (2 cm×2 cm) impregnated with a 1:1 liquid mixture of acetone and diethyl ether. This treatment for destroying the skin's barrier function was performed for 3 consecutive days on once-a-day basis. Starting on the day next to completion of the treatment for barrier destruction at day 3, a solvent (ethanol, 100 μL) or a drug dissolved in the solvent (compound No. 7, PGD2, PGF2α, or PGE1, all being at 0.01% in an amount of 100 μL) was applied to the barrier destroyed site for 2 days on once-a-day basis. On the day next to the second application of the solvent or drug, the transepidermal water loss (TEWL) at the same site was measured with Tewameter (TM210 of Courage & Khazawa, Germany) to evaluate the drug's action.

BALB/c male mice [2] = experiment: Mouse skin's barrier function, preventive test, TEWL (Test Example 6); type: in vivo; settings: cohabitation with dermatitic NC/Nga mice; 0.01% in ethanol, 100 μL, once a day for 7 days
Method: Six-week-old BALB/c male mice in groups of six were shaven in a rostral dorsolateral area of 4 cm^2 (2 cm×2 cm) with electric clippers and kept in the same cage as NC/Nga mice that had developed dermatitis. From the day next to the start of cohabitation, a solvent (ethanol, 100 μL) or a drug dissolved in the solvent (compound No. 7, PGD2, PGF2α, or PGE1, all being at 0.01% in an amount of 100 μL) was applied to the shaven site for 7 days on once-a-day basis.
On the day next to the seventh application of the solvent or drug, the transepidermal water loss (TEWL) at the same site was measured with Tewameter (TM210 of Courage & Khazawa, Germany) to evaluate the drug's action, with the solvent-applied group being used as the control group.

guinea pig platelets = experiment: Suppression of ADP-induced aggregation of guinea pig platelets; type: cell-based; settings: guinea pig platelet-rich plasma, ADP (3 μM)
Method: Ten-week-old Hartley male guinea pigs were anesthetized with pentobarbital (30 mg/kg, i.p. injected) and a total of 20 mL of blood was sampled into a syringe containing 2.0 mL of 3.8% sodium citrate. The blood was immediately centrifuged at 900 rpm for 10 minutes at 20° C. to recover the supernatant PRP. By further centrifugation at 3000 rpm for 10 minutes at 20° C., the supernatant PPP was recovered. The platelet count of PRP was diluted with PPP to 30×10^4 platelets/μL for subsequent use.
For platelet aggregation measurement, a platelet aggregation measuring instrument (PAM-8C) was employed. To 274 μL of PRP, 1 μL of a 0.287-95.7 nM test drug solution in ethanol was added and the mixture was incubated at 37° C. for 3 minutes with stirring at 1000 rpm. After the incubation, 25 μL of ADP (3 μM) was added to induce platelet aggregation and a maximum percent aggregation for 5 minutes was measured.
The percent suppression of aggregation by each test drug was calculated from the maximum percent aggregation by the test drug as relative to the maximum percent aggregation by ethanol instead of the test drug solution and IC50 values were determined from the constructed dose-response curve.

[3] = test system: Fifty-week-old BALB/c male mice; experiment: Aged mouse skin's barrier function, treatment test, TEWL (Test Example 7); type: in vivo; settings: 50-week-old mice; 0.0001% in ethanol, 200 μL, once a day for 3 days
Method: Fifty-week-old BALB/c male mice (eight in each group) were shaven in a rostral dorsolateral area of 4 cm^2 (2 cm×2 cm) with electric clippers. Starting on the next day, a solvent (ethanol, 200 μL) or a drug dissolved in the solvent (compound No. 7 or PGD2, each being at 0.0001% in an amount of 200 μL) was applied to the shaven site for 3 days on once-a-day basis.
On the day next to the third application of the solvent or drug, TEWL at the same site was measured with Tewameter (TM210 of Courage & Khazawa, Germany) to evaluate the drug's action.

human platelets = experiment: Suppression of ADP-induced aggregation of human platelets; type: cell-based; settings: human platelet-rich plasma, ADP (3 μM), Born method
Method: (A) Using the active ingredient of the present invention (compound No. 7) and PGD2 as a control for comparison, prostaglandin D receptor binding selectivity was determined with reference to the platelet aggregation suppressing action as the prostaglandin D receptor agonist action. 1. Human Platelet Aggregation Suppressing Action Suppression of ADP-Induced Aggregation of Human Platelets
The test was performed on purchased platelet-rich plasma (PRP) (6×10^8 platelets/mL) and platelet aggregation was measured based on the Born method (Nature, vol. 194, p. 927, 1962). To 100 μL of PRP, 5 μL of a 1 nM-3 μM test drug solution in ethanol was added and the mixture was incubated at 37° C. for 1 minute with stirring at 1000 rpm. To the resulting mixture, 5 μL of an aggregation inducer [ADP (3 μM)] was added to induce platelet aggregation and a maximum percent aggregation (a maximum change in light transmittance that occurred within 5 minutes after the induction of platelet aggregation) was determined by an aggregometer. The percent suppression of aggregation by each test drug was calculated from the maximum percent aggregation by the test drug as relative to the maximum percent aggregation by ethanol instead of the test drug solution and IC50 values were determined from the constructed dose-response curve.

prostaglandin D receptor = biological target: T1, prostaglandin D receptor (Homo sapiens, UniProt Q13258); experiment: Antagonism by BW A868C of the suppression of ADP-induced human platelet aggregation; type: cell-based; settings: final concentration 1000 nmol/L, human PRP, ADP 3 μmol/L
T1 construct: separate the supernatant (PRP, or platelet-rich plasma); endogenous in cells; host or cells: human platelets (platelet-rich plasma from healthy male donors)
T1 sequence (Q13258 1-359): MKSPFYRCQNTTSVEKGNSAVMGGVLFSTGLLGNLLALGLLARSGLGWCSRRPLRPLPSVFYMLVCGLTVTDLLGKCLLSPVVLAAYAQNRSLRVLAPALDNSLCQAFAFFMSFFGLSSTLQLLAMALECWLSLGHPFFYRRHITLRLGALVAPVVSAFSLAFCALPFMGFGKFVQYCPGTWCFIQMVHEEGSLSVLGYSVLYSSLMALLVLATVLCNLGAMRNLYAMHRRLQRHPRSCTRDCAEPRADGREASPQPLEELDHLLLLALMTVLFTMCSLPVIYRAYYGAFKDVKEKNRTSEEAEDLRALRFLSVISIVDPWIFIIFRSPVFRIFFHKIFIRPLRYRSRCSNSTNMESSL
Method: The prostaglandin D receptor selective antagonist used in the test was ((+/−)-3-benzyl-5-(6-carboxyhexyl)-1-(2-cyclohexyl-2-hydroxyethylamino)-hydantoin) (hereunder designated BW A868C) (Sigma-Aldrich Japan K.K.)
BW A868C was diluted with ethanol to final concentrations of 0.03 μmol/L, 0.1 μmol/L, 0.3 μmol/L, 1 μmol/L, 3 μmol/L and 10 μmol/L.
Compound No. 7 and PGD2 were diluted with ethanol to 287 nmol/L and 300 nmol/L, respectively, for subsequent use.
Blood was taken from the cubital veins of human healthy males and sampled into a tube containing 3.13% sodium citrate. The blood sample was centrifuged at 1,000 rpm for 10 minutes at 20° C. to separate the supernatant (PRP, or platelet-rich plasma) and the residue was further centrifuged at 3,000 rpm for 10 minutes at 20° C. to separate the supernatant (PPP, or platelet-poor plasma). The platelet count of PRP was appropriately diluted with PPP to 30×10^4 platelets/μL for subsequent use.
Platelet aggregation was measured with a platelet aggregation measuring instrument (PAM-8C; MC MEDICAL Co., LTD.) by the Born method (Nature, vol. 194, p. 927, 1962). A portion (273 μL) of PRP (for the BW A868C groups, 1 μL of BW A868C was added at varying concentrations) was preincubated at 37° C. for 3 minutes with stirring at 1,000 rpm. After the preincubation, 1 μL of ethanol or a test substance (compound No. 7: final concentration at 95.7 nmol/L; PGD2: final concentration at 1000 nmol/L) was added and the mixture was incubated at 37° C. for 3 minutes with stirring at 1000 rpm. After the incubation, 25 μL of ADP (final concentration at 3 μmol/L) was added to induce platelet aggregation and a maximum percent aggregation for 5 minutes was measured.

SMILES: CCCCC[C@H](O)/C=C/[C@H]1C(=O)C[C@H](O)[C@@H]1C/C=C\CCCC(=O)O [PGD2, prostaglandin D2, reference compound]
- transepidermal water loss (TEWL) compared to the solvent-applied control group (BALB/c male mice [1]): no significant difference from the control group
- transepidermal water loss (TEWL) compared to the control group (BALB/c male mice [2]): significant decrease in TEWL
- IC50 (guinea pig platelets): 54.3 ± 23 nM
- transepidermal water loss (TEWL) compared to the control group [3]: no significant difference from the control group
- IC50 (human platelets): 11 nM
- platelet aggregation suppressing action compared with control group (ethanol) (prostaglandin D receptor): significant platelet aggregation suppressing action
